Results published in PubChem BioAssay AID1552 (Sanford-Burnham Center for Chemical Genomics, 2009).
The source made the active and inactive calls. How the calls were made is not given here.

Target: Ubiquitin-conjugating enzyme E2 N (Homo sapiens) (UniProt P61088)
Experiment: UBE2N binders by NMR, biophysical, purified protein (AID 1552)
Settings: NMR binding to purified UBE2N

Sequence of Ubiquitin-conjugating enzyme E2 N (Homo sapiens) (P61088 whole entry, looked up): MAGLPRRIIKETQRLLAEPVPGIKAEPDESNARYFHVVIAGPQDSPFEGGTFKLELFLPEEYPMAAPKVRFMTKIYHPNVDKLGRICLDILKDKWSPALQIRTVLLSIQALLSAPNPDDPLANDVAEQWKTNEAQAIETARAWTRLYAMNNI

| Compound | Kd |
| --- | --- |
| Cn1nnc2cc(C(=O)NC3=NCCS3)ccc21 | > 4 mM (inactive) |
| NC1CCN(Cc2ccccc2)CC1 | > 4 mM (inactive) |
| O=C1NC(=O)C(C2SC(=O)NC2=O)S1 (centres undefined) | > 4 mM (inactive) |
| O=C(c1ccccc1)c1ccccc1C(=O)N1CCOCC1 | > 4 mM (inactive) |
| c1cnc(N2CCSCC2)nc1 | > 4 mM (inactive) |
| Cc1cc(=O)[nH]c(N2CCN(Cc3ccccc3)CC2)n1 | > 4 mM (inactive) |
| Cc1cc(C)n(-c2nc(N)cc(=O)[nH]2)n1 | > 4 mM (inactive) |
| COCC(=O)Nc1nc2ccc(C)cc2s1 | > 4 mM (inactive) |
| NCc1cccc2c1OCCCO2 | > 4 mM (inactive) |
| COc1ccc(-c2coc3c(OC)c(OC)cc(OC)c3c2=O)cc1 | > 4 mM (inactive) |
| COc1ccc(-c2cc(=O)c3c(O)cc(O)c(-c4cc(-c5cc(=O)c6c(O)cc(O)cc6o5)ccc4OC)c3o2)cc1 | > 4 mM (inactive) |
| CC(=O)NC(O)C(=O)c1cccs1 (centres undefined) | > 4 mM (inactive) |
| Nc1nc(SCc2ccc3c(c2)OCCO3)n[nH]1 | > 4 mM (inactive) |
| CC(C)(C)C(=O)N1CCCC1C(=O)O (centres undefined) | > 4 mM (inactive) |
| COc1ccccc1-c1c(C)nn2c(C)c(C(C)=O)cnc12 | > 4 mM (inactive) |
| CC(=O)Nc1ccc(NC(=O)N2CCOCC2)cc1 | > 4 mM (inactive) |
| COc1c2c(cc3c1OCO3)CCN(C)C2 | > 4 mM (inactive) |
| COc1cc(O)c2c(c1)C(=O)c1cc(C)cc(O)c1C2=O | > 4 mM (inactive) |
| COC(=O)C[C@H]1C(C)(C)C(OC(C)=O)[C@]2(O)C=C3C(CC[C@]4(C)C3CC(=O)O[C@H]4c3ccoc3)C1(C)C2=O (some centres undefined) | > 4 mM (inactive) |
| CCNS(=O)(=O)c1cc(Br)ccc1OC | > 4 mM (inactive) |
| O=C(O)c1ccc(Nc2nncc(=O)[nH]2)cc1 | > 4 mM (inactive) |

| Compound | Kd |
| --- | --- |
| CC(C)CCn1cnc2c1c(=O)n(C)c(=O)n2C | > 4 mM (inactive) |
| Nc1cc(=O)[nH]c(SCC(=O)NC2CCCCC2)n1 | > 4 mM (inactive) |
| Cc1ccc(-c2nnc3sc(-c4ccncc4)nn23)cc1 | > 4 mM (inactive) |
| COc1ccc(-c2cc(=O)c3ccccc3o2)cc1OC | > 4 mM (inactive) |
| CSc1nc(O)cc(=O)[nH]1 | > 4 mM (inactive) |
| CSc1n[nH]c(NCc2cccs2)n1 | > 4 mM (inactive) |
| Nc1nnc(SCc2ccc(F)cc2)s1 | > 4 mM (inactive) |
| COc1ccc2c(c1)C(NC(C)=O)C(=O)N2C (centres undefined) | > 4 mM (inactive) |
| O=C(CSc1ncn[nH]1)c1ccccc1 | > 4 mM (inactive) |
| O=C1NC(=S)N/C1=C\c1cccc([N+](=O)[O-])c1 | > 4 mM (inactive) |
| CC(C)(C)C(=O)Nc1ncc(C(F)(F)F)cc1Cl | > 4 mM (inactive) |
| COC(=O)Cc1csc(N)n1 | > 4 mM (inactive) |
| CC(=O)Oc1c2c(c3c(c1CC=C(C)C)O[C@]14C(=C[C@@H]5CC1C(C)(C)OC4(C/C=C(\C)C(=O)O)C5=O)C3=O)OC(C)(CCC=C(C)C)C=C2 (some centres undefined) | > 4 mM (inactive) |
| Cc1ccccc1NC(=O)c1ocnc1C | > 4 mM (inactive) |
| Cc1c(C(=O)NC2=NCCS2)oc2ccccc12 | > 4 mM (inactive) |
| CCCC(=O)N1CCSCC1 | > 4 mM (inactive) |
| OC[C@H]1O[C@@H](O[C@H]2[C@H](O)[C@@H](O)[C@@H](O)O[C@@H]2CO)[C@H](O)[C@@H](O)[C@@H]1O | > 4 mM (inactive) |
| O=c1[nH]c(=O)n(-c2ccc(F)cc2)c(O)c1/C=C1/C=CC=N1 | > 4 mM (inactive) |
| O=C(O)C1Cc2c([nH]c3ccccc23)CN1 (centres undefined) | > 4 mM (inactive) |
| O=c1c2c(nc3nc(Cc4ccccc4)[nH]n13)CCC2 | > 4 mM (inactive) |
| OCc1cc(F)cc2c1OCOC2 | > 4 mM (inactive) |

| Compound | Kd |
| --- | --- |
| CN(C)c1nc(N2CCOCC2)nc(N2CCOCC2)n1 | > 4 mM (inactive) |
| O=C(NC(=O)N1CCOCC1)c1ccccc1 | > 4 mM (inactive) |
| Cc1ccc(C)c(C(=O)n2cnnc2N)c1 | > 4 mM (inactive) |
| CNC(=O)Oc1ccc2c(c1)[C@]1(C)CCN(C)[C@@H]1N2C | > 4 mM (inactive) |
| CNC(=O)C(=O)NCc1ccc(C)cc1 | > 4 mM (inactive) |
| COc1ccc2nc(N)sc2n1 | > 4 mM (inactive) |
| [O-][n+]1onc2c1CCc1c-2nn(-c2ccccc2)[n+]1[O-] | > 4 mM (inactive) |
| CCOc1ccccc1C(=O)NC1=NCCS1 | > 4 mM (inactive) |
| Cc1sc2nc(-c3ccco3)oc(=O)c2c1C | > 4 mM (inactive) |
| O=C(NCc1ccncc1)c1cccc(F)c1 | > 4 mM (inactive) |
| CN1CN/C(=N\[N+](=O)[O-])N(c2ccccc2)C1 | > 4 mM (inactive) |
| Cc1ccc(Nc2nnns2)cc1C | > 4 mM (inactive) |
| COc1cc2cc[n+]3cc4c(OC)c(OC)ccc4cc3c2cc1OC | > 4 mM (inactive) |
| C[C@H]1CCCC(=O)CCC/C=C/c2cc(O)cc(O)c2C(=O)O1 | > 4 mM (inactive) |
| C=Cc1c(C)c2cc3[nH]c(cc4nc(cc5nc(cc1[nH]2)C(C)=C5CCC(=O)O)C(CCC(=O)O)=C4C)c(C)c3C=C | > 4 mM (inactive) |
| O=C(Nc1cccnc1)c1ccc(Br)s1 | > 4 mM (inactive) |
| OCCNc1ccccn1 | > 4 mM (inactive) |
| C/C=C1\[C@H]2C=C(C)C[C@]1(N)c1ccc(=O)[nH]c1C2 | > 4 mM (inactive) |
| O=c1nc(N2CCOCC2)nc2n1CCO2 | > 4 mM (inactive) |
| O=C(O)C1=CCCNC1 | > 4 mM (inactive) |
| OCc1ccc(-c2ccccn2)s1 | > 4 mM (inactive) |

| Compound | Kd |
| --- | --- |
| CCOC(=O)c1cnc2cc(C)nn2c1C | > 4 mM (inactive) |
| CNC(=O)C1COc2ccccc2O1 (centres undefined) | > 4 mM (inactive) |
| N#Cc1cnn2c(C(F)(F)F)cc(C(F)(F)F)nc12 | > 4 mM (inactive) |
| COc1ccc2c(c1OC)C(=O)O[C@H]2[C@H]1c2cc3c(cc2CCN1C)OCO3 | > 4 mM (inactive) |
| CN(C(N)=O)C1(C)CCS(=O)(=O)C1 (centres undefined) | > 4 mM (inactive) |
| CNC(=S)Nc1ccc2c(c1)OCO2 | > 4 mM (inactive) |
| O=C(Nc1ccncc1)c1cncc(Br)c1 | > 4 mM (inactive) |
| O=C(O)c1ccnn1-c1ccccc1 | > 4 mM (inactive) |
| O=C1CSC(c2ccc3c(c2)OCO3)N1 (centres undefined) | > 4 mM (inactive) |
| Cc1cc(C(=O)NCc2cccs2)cs1 | > 4 mM (inactive) |
| O=C(NCO)c1ccccc1Cl | > 4 mM (inactive) |
| CS(=O)(=O)Nc1ccc(C(=O)N2CCCCC2)cc1 | > 4 mM (inactive) |
| O=C1OCCC1Sc1nc2ccccc2c(=O)[nH]1 (centres undefined) | > 4 mM (inactive) |
| Cc1nc2ccc(NC(=O)N3CCSCC3)cc2s1 | > 4 mM (inactive) |
| Cc1csc(NC(=O)c2ccoc2C)n1 | > 4 mM (inactive) |
| CC(=O)O[C@H]1C[C@@H](OC(C)=O)C(C)(C)C2C[C@@H](OC(C)=O)[C@]3(C)C(CC[C@@]4(C)[C@H](c5ccoc5)OC(=O)[C@H]5O[C@]543)[C@]21C (some centres undefined) | > 4 mM (inactive) |
| CN(C)Cc1nc2c([nH]1)c(=O)[nH]c(=O)n2C | > 4 mM (inactive) |
| NCc1cn2ccccc2n1 | > 4 mM (inactive) |
| Nc1ncnc(NCCOCCO)c1[N+](=O)[O-] | > 4 mM (inactive) |
| O=C(CSc1ncn[nH]1)c1ccc2c(c1)OCO2 | > 4 mM (inactive) |
| CC(=O)Nc1cccc(N2C(=O)CCC2=O)c1 | > 4 mM (inactive) |
